Common to all, as to assay type: functional
The test system of test [1] is Staphylococcus aureus. The test can be described thus: Antibacterial activity against Staphylococcus aureus MLS16 MTCC 2940 incubated for 24 hrs at 37 degC by well diffusion method. As to conditions: MLS16 MTCC 2940, 24 h.
Test [2] concerns Bacillus subtilis. Briefly: Antibacterial activity against Bacillus subtilis MTCC 121 incubated for 24 hrs at 37 degC by well diffusion method. The settings on record: MTCC 121, 24 h. On the technique in general: A growth-free zone around the sample is the usual read-out of agar diffusion tests.
The next test deals with Pseudomonas aeruginosa. Briefly: Antibacterial activity against Pseudomonas aeruginosa MTCC 2453 incubated for 24 hrs at 37 degC by well diffusion method. As to conditions: MTCC 2453, 24 h.
In test [3] the test system is Escherichia coli. The test can be described thus: Antibacterial activity against Escherichia coli MTCC 739 incubated for 24 hrs at 37 degC by well diffusion method. The settings on record: MTCC 739, 24 h.
Test [4] relates to Micrococcus luteus. Briefly: Antibacterial activity against Micrococcus luteus MTCC 2470 incubated for 24 hrs at 37 degC by well diffusion method. As to conditions: MTCC 2470, 24 h.
Test [5] relates to Staphylococcus aureus. The test can be described thus: Antibacterial activity against Staphylococcus aureus MTCC 96 incubated for 24 hrs at 37 degC by well diffusion method. As to conditions: MTCC 96, 24 h.
The test system of test [6] is Raoultella planticola. Briefly: Antibacterial activity against Klebsiella planticola MTCC 530 incubated for 24 hrs at 37 degC by well diffusion method. As to conditions: MTCC 530, 24 h.
In test [7] the test system is Raoultella planticola. The test can be described thus: Bactericidal activity against Klebsiella planticola MTCC 530 incubated for 24 hrs. The settings on record: MTCC 530, 24 h.
Test [8] relates to Escherichia coli. Briefly: Bactericidal activity against Escherichia coli MTCC 739 incubated for 24 hrs. The settings on record: MTCC 739, 24 h.
The subject of test [9] is Micrococcus luteus. The test can be described thus: Bactericidal activity against Micrococcus luteus MTCC 2470 incubated for 24 hrs. As to conditions: MTCC 2470, 24 h.
The test system of test [10] is Staphylococcus aureus. Briefly: Bactericidal activity against Staphylococcus aureus MLS16 MTCC 2940 incubated for 24 hrs. The settings on record: MLS16 MTCC 2940, 24 h.
Test [11] relates to Staphylococcus aureus. The test can be described thus: Bactericidal activity against Staphylococcus aureus MTCC 96 incubated for 24 hrs. As to conditions: MTCC 96, 24 h.
For test [12], the system named is Bacillus subtilis. The test can be described thus: Bactericidal activity against Bacillus subtilis MTCC 121 incubated for 24 hrs. The settings on record: MTCC 121, 24 h.

Converted amounts (≈) assume the structure as drawn. Bounds are passed on as bounds.

For the compound `CCCCCCCCC[C@@H](O)[C@H](CO)n1cc(-c2ccc3cc(OC)ccc3c2)nn1`, the MIC in the test on Staphylococcus aureus [1], against Bacillus subtilis [2], with Pseudomonas aeruginosa, against Escherichia coli [3], against Micrococcus luteus [4] and in the test with Staphylococcus aureus [5] was more than 250 µg/mL throughout. Also, the MIC (commonly the least concentration at which growth counts as inhibited) against Raoultella planticola [6] was more than 250 µg/mL.
As for `CCCCCCCCC[C@@H](O)[C@H](CO)n1cc(CCCCCC)nn1`, the MIC against Staphylococcus aureus [1] was more than 250 µg/mL; against Bacillus subtilis [2] it was 7.8 µg/mL (≈ 22.1 µM); against Pseudomonas aeruginosa, more than 250 µg/mL; with Escherichia coli [3], more than 250 µg/mL; with Micrococcus luteus [4] it was 7.8 µg/mL (≈ 22.1 µM); against Staphylococcus aureus [5], 3.9 µg/mL (≈ 11 µM). For the same compound, the MIC against Raoultella planticola [6] is more than 250 µg/mL. In addition, the MBC (as a rule, the lowest tested concentration that kills the bacteria rather than only halting them) in the test with Raoultella planticola [7] was more than 250 µg/mL; against Escherichia coli [8] it was more than 250 µg/mL; against Micrococcus luteus [9], 15.6 µg/mL (≈ 44.1 µM); in the test with Staphylococcus aureus [10], more than 250 µg/mL; against Staphylococcus aureus [11], 3.9 µg/mL (≈ 11 µM); against Bacillus subtilis [12], 15.6 µg/mL (≈ 44.1 µM).
Consider `O=C(O)c1cn(C2CC2)c2cc(N3CCNCC3)c(F)cc2c1=O` [CIPROFLOXACIN], for which the MIC with Staphylococcus aureus [1], against Bacillus subtilis [2], in the test on Pseudomonas aeruginosa, in the test with Escherichia coli [3], in the test on Micrococcus luteus [4] and against Staphylococcus aureus [5] was 0.9 µg/mL (≈ 2.72 µM) in each case. In addition, the lowest concentration to inhibit growth against Raoultella planticola [6] (MIC) was 0.9 µg/mL (≈ 2.72 µM). Moreover, the MBC came out at 0.9 µg/mL (≈ 2.72 µM) in the test on Raoultella planticola [7]; 1.9 µg/mL (≈ 5.73 µM) in the test on Escherichia coli [8]; 0.9 µg/mL (≈ 2.72 µM) with Micrococcus luteus [9]; 1.9 µg/mL (≈ 5.73 µM) with Staphylococcus aureus [10]; 0.9 µg/mL (≈ 2.72 µM) against Staphylococcus aureus [11]; 1.9 µg/mL (≈ 5.73 µM) in the test on Bacillus subtilis [12].
For the compound `CCCCCCCCC[C@@H](O)[C@H](CO)n1cc(CCO)nn1`, the MIC was more than 250 µg/mL against Staphylococcus aureus [1]; 31.2 µg/mL (≈ 99.5 µM) in the test with Bacillus subtilis [2]; more than 250 µg/mL against Pseudomonas aeruginosa; more than 250 µg/mL in the test on Escherichia coli [3]; 15.6 µg/mL (≈ 49.8 µM) against Micrococcus luteus [4]; 31.2 µg/mL (≈ 99.5 µM) with Staphylococcus aureus [5]. Moreover, the MIC in the test on Raoultella planticola [6] is more than 250 µg/mL. For the same compound, the MBC with Raoultella planticola [7] was more than 250 µg/mL; against Escherichia coli [8], more than 250 µg/mL; against Micrococcus luteus [9], 31.2 µg/mL (≈ 99.5 µM); with Staphylococcus aureus [10], more than 250 µg/mL; in the test with Staphylococcus aureus [11] it was 31.2 µg/mL (≈ 99.5 µM); in the test with Bacillus subtilis [12], 31.2 µg/mL (≈ 99.5 µM).

The record behind these values is ChEMBL document CHEMBL3822398, “Design, synthesis and in vitro biological evaluation of short-chain C12-sphinganine and its 1,2,3-triazole analogs as potential antimicrobial and anti-biofilm agents” (Eur J Med Chem, 2016).
